# Data published in US20240368158A1, “KINASE MODULATORS, COMPOSITIONS COMPRISING THE KINASE MODULATOR, AND METHODS OF USING THE SAME” (BIOFRONT LTD, priority 2021, published 2024).
# Columns and labels:
# HPK1 = molecular target: T1, HPK1 (Homo sapiens, UniProt Q92918); assay: HPK1 enzyme inhibition assay (ADP-Glo); format: biochemical; conditions: MBP substrate, ATP
# T1 construct: purchased Signal Chem M23-11G-10
# T1 sequence (Q92918 1-346 limits assumed): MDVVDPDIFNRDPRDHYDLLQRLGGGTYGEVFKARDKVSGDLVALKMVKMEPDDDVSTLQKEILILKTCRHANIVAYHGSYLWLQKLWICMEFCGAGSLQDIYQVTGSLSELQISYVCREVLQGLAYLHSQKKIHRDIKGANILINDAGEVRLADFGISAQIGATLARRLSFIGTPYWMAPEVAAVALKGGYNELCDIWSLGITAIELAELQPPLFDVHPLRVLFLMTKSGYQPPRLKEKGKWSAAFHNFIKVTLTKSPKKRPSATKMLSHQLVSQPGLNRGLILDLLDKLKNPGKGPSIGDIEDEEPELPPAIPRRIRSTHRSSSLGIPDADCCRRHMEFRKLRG
# Experimental: The compound was dissolved in 100% DMSO at the concentration of 10 mM. The HPK1 protein was purchased from Signal Chem (M23-11G-10). 2.5 μL per well of 2×HPK1 protein was added to assay plate containing the test compound, centrifuged at 1500 rpm for 1 minute, and then incubated at 25° C. for 60 minutes. MBP protein was purchased from Signal Chem (M42-51N) and ATP was purchased from Promega (V9102). The two were added 2.5 μL per well mixture of 2×MBP (0.2 ug/ul) and ATP (20 μM), centrifuged at 1500 rpm for 1 minute, then incubated at 25° C. for 60 minutes. Then added 5 μL of ADP-Glo from Promega (V9102) to the assay plate and depleted the unconsumed ATP for 60 minutes. Then centrifuged at 1500 rpm for 1 minute and incubated at 25° C. for 60 minutes. Finally, 10 μL of the kinase assay reagent from Promega (V9102) was added to the assay plate to convert ADP to ATP, centrifuged at 1500 rpm for 1 minute, incubate at 25° C. for 40 minutes. After 40 minutes incubation, the […] was determined. Based on the results, the IC50 value of the compound was calculated.
# [1] = tested on: HPK1 p-SLP-76 in Jurkat cells; assay: HPK1 p-SLP-76 inhibition assay in Jurkat cells (HTRF); format: cell-based; conditions: Homo sapiens, 4 h compound, anti-CD3 stimulation 20 min
# Experimental: Before compound treatment, Jurkat cells were starved in PRMI-1640 medium supplemented with 0.5% FBS overnight. The cell density was adjusted to 1*10^7 cells/mL in assay medium (RPMI-1640 no phenol red with 0.5% FBS) and 16 uL cell suspension was transferred per well to a 384-well plate (Corning #3765). […] of test compound was prepared in assay medium and 4 uL was added per well to the 384-well plate. The plate was then incubated at 37° C., 5% CO2 for 4 h. Jurkat cells in 384-well plate were stimulated with anti-CD3 (BD Biosciences #555329, final conc. is 10 ug/mL) for 20 min at 37° C., 5% CO2 by adding 4 uL 6× antibody solution per well. Phospho-SLP76 HTRF kit was purchased from Cisbio (63ADK076PEH). 8 uL 4× Lysis Buffer was added to 384-well plate after anti-CD3 stimulation. The plate was centrifuged at 1,000 rpm for 1 min, shaken at 250 rpm for 60 min and centrifuged again at 1,000 rpm for 5 min. Afterwards the cell lysates were transferred to the assay plate (Greiner #784075) with 16 uL per well. 4 uL detection antibody mix per well prepared in Detection Buffer was added to the assay plate, followed by centrifugation at 1,000 rpm for 1 min and incubation at 25° C. overnight. The fluorescence emission at two different wavelengths (665 nm and 620 nm) was read by an HTRF compatible microplate reader and the IC50 value of the compound was calculated.
IC50 (HPK1) [µM],IC50 [1] [µM],SMILES
≤ 0.01,0.3 to 3,"CCc1c[nH]c2ncc(-c3cccc(N4CCCC(CO)C4=O)c3)c(Cl)c12 (racemic) [Example 22, 1-(3-(4-chloro-3-ethyl-1H-pyrrolo[2,3-b]pyridin-5-yl)phenyl)-3-(hydroxymethyl)piperidin-2-one]"
≤ 0.01,0.3 to 3,"CCc1c[nH]c2ncc(-c3cccc(N4CCNCC4=O)c3)c(Cl)c12 [Example 1, 1-(3-(4-chloro-3-ethyl-1H-pyrrolo[2,3-b]pyridin-5-yl)phenyl)piperazin-2-one]"
0.1 to 1,> 10,"COC(=O)c1c[nH]c2ncc(-c3cccc(N4CCNCC4=O)c3)c(Cl)c12 [Example 2, Methyl 4-chloro-5-(3-(2-oxopiperazin-1-yl)phenyl)-1H-pyrrolo[2,3-b]pyridine-3-carboxylate]"
0.1 to 1,0.3 to 3,"CC(C)(C)C#Cc1c[nH]c2ncc(-c3cccc(N4CCNCC4=O)c3)c(Cl)c12 [Example 3, 1-(3-(4-chloro-3-(3,3-dimethylbut-1-yn-1-yl)-1H-pyrrolo[2,3-b]pyridin-5-yl)phenyl) piperazin-2-one]"
≤ 0.01,0.3 to 3,"O=C1CNCCN1c1cccc(-c2cnc3[nH]cc(C4CC4)c3c2Cl)c1 [Example 4, 1-(3-(4-chloro-3-cyclopropyl-1H-pyrrolo[2,3-b]pyridin-5-yl)phenyl) piperazin-2-one]"
≤ 0.01,> 10,"O=C1CNCCN1c1cccc(-c2cnc3[nH]cc(C#CC4CC4)c3c2Cl)c1 [Example 5, 1-(3-(4-chloro-3-(cyclopropylethynyl)-1H-pyrrolo[2,3-b]pyridin-5-yl)phenyl) piperazin-2-one]"
0.01 to 0.1,0.3 to 3,"O=C1CNCCN1c1cccc(-c2cnc3[nH]cc(C#Cc4cccnc4)c3c2Cl)c1 [Example 6, 1-(3-(4-chloro-3-(pyridin-3-ylethynyl)-1H-pyrrolo[2,3-b]pyridin-5-yl)phenyl)piperazin-2-one]"
> 1,> 10,"CN(C)CC#Cc1c[nH]c2ncc(-c3cccc(N4CCNCC4=O)c3)c(Cl)c12 [Example 8, 1-(3-(4-chloro-3-(3-(dimethylamino)prop-1-yn-1-yl)-1H-pyrrolo[2,3-b]pyridin-5-yl)phenyl)piperazin-2-one]"
≤ 0.01,0.3 to 3,"CCc1c[nH]c2ncc(-c3cccc(N4CCNCC4=O)n3)c(Cl)c12 [Example 9, 1-(6-(4-chloro-3-ethyl-1H-pyrrolo[2,3-b]pyridin-5-yl)pyridin-2-yl)piperazin-2-one]"
0.01 to 0.1,0.3 to 3,"CCc1c[nH]c2ncc(-c3csc(N4CCNCC4=O)n3)c(Cl)c12 [Example 10, 1-(4-(4-chloro-3-ethyl-1H-pyrrolo[2,3-b]pyridin-5-yl)thiazol-2-yl)piperazin-2-one]"
0.01 to 0.1,3 to 10,"O=C1CNCCN1c1nc(-c2cnc3[nH]cc(C4CC4)c3c2Cl)cs1 [Example 11, 1-(4-(4-chloro-3-cyclopropyl-1H-pyrrolo[2,3-b]pyridin-5-yl)thiazol-2-yl)piperazin-2-one]"
≤ 0.01,0.3 to 3,"O=C1CNCCN1c1cccc(-c2cnc3[nH]cc(CC(F)F)c3c2Cl)c1 [Example 12, 1-(3-(4-chloro-3-(2,2-difluoroethyl)-1H-pyrrolo[2,3-b]pyridin-5-yl)phenyl)piperazin-2-one]"
0.01 to 0.1,3 to 10,"Cc1ccc(C#Cc2c[nH]c3ncc(-c4cccc(N5CCNCC5=O)c4)c(Cl)c23)cn1 [Example 13, 1-(3-(4-chloro-3-((6-methylpyridin-3-yl)ethynyl)-1H-pyrrolo[2,3-b]pyridin-5-yl)phenyl)piperazin-2-one]"
0.01 to 0.1,> 10,"Cn1cnc(C#Cc2c[nH]c3ncc(-c4cccc(N5CCNCC5=O)c4)c(Cl)c23)n1 [Example 14, 1-(3-(4-chloro-3-((1-methyl-1H-1,2,4-triazol-3-yl)ethynyl)-1H-pyrrolo[2,3-b]pyridin-5-yl)phenyl)piperazin-2-one]"
≤ 0.01,≤ 0.3,"O=C1CNCCN1c1cccc(-c2cnc3[nH]cc(C4CC4)c3c2Cl)n1 [Example 15, 1-(6-(4-chloro-3-cyclopropyl-1H-pyrrolo[2,3-b]pyridin-5-yl)pyridin-2-yl)piperazin-2-one]"
0.01 to 0.1,0.3 to 3,"O=C1CNCCN1c1cccc(-c2cnc3[nH]cc(CC(F)F)c3c2Cl)n1 [Example 16, 1-(6-(4-chloro-3-(2,2-difluoroethyl)-1H-pyrrolo[2,3-b]pyridin-5-yl)pyridin-2-yl)piperazin-2-one]"
0.01 to 0.1,0.3 to 3,"CCc1c[nH]c2ncc(-c3cc(N4CCNCC4=O)ccc3F)c(Cl)c12 [Example 17, 1-(3-(4-chloro-3-ethyl-1H-pyrrolo[2,3-b]pyridin-5-yl)-4-fluorophenyl)piperazin-2-one]"
0.01 to 0.1,3 to 10,"O=C1CNCCN1c1cc(-c2cnc3[nH]cc(C4CC4)c3c2Cl)ccn1 [Example 18, 1-(4-(4-chloro-3-cyclopropyl-1H-pyrrolo[2,3-b]pyridin-5-yl)pyridin-2-yl)piperazin-2-one]"
0.1 to 1,> 10,"O=C1CNCCN1c1cncc(-c2cnc3[nH]cc(C4CC4)c3c2Cl)c1 [Example 19, 1-(5-(4-chloro-3-cyclopropyl-1H-pyrrolo[2,3-b]pyridin-5-yl)pyridin-3-yl)piperazin-2-one]"
> 1,> 10,"CCc1c[nH]c2ncc(-c3cc(N4CCNCC4=O)ccc3CO)cc12 [Example 21, 1-(3-(3-ethyl-1H-pyrrolo[2,3-b]pyridin-5-yl)-4-(hydroxymethyl)phenyl)piperazin-2-one]"
≤ 0.01,0.3 to 3,"CCc1c[nH]c2ncc(-c3cccc(N4CCC[C@H](CO)C4=O)c3)c(Cl)c12 [Example 23, (R)-1-(3-(4-chloro-3-ethyl-1H-pyrrolo[2,3-b]pyridin-5-yl)phenyl)-3-(hydroxymethyl)piperidin-2-one]"
≤ 0.01,0.3 to 3,"CCc1c[nH]c2ncc(-c3cccc(N4CCC[C@@H](CO)C4=O)c3)c(Cl)c12 [Example 24, (S)-1-(3-(4-chloro-3-ethyl-1H-pyrrolo[2,3-b]pyridin-5-yl)phenyl)-3-(hydroxymethyl)piperidin-2-one]"
≤ 0.01,0.3 to 3,"CCc1c[nH]c2ncc(-c3cccc(N4CCN(C(=O)CN5CCOCC5)CC4=O)c3)c(Cl)c12 [Example 26, 1-(3-(4-chloro-3-ethyl-1H-pyrrolo[2,3-b]pyridin-5-yl)phenyl)-4-(2-morpholinoacetyl)piperazin-2-one]"
≤ 0.01,≤ 0.3,"CCc1c[nH]c2ncc(-c3cccc(N4CCN(C(=O)OC)CC4=O)c3)c(Cl)c12 [Example 27, Methyl 4-(3-(4-chloro-3-ethyl-1H-pyrrolo[2,3-b]pyridin-5-yl)phenyl)-3-oxopiperazine-1-carboxylate]"
≤ 0.01,0.3 to 3,"CCc1c[nH]c2ncc(-c3cccc(N4CCN(CCOC)CC4=O)c3)c(Cl)c12 [Example 28, 1-(3-(4-chloro-3-ethyl-1H-pyrrolo[2,3-b]pyridin-5-yl)phenyl)-4-(2-methoxyethyl)piperazin-2-one]"
≤ 0.01,0.3 to 3,"COCC(=O)N1CCN(c2cccc(-c3cnc4[nH]cc(C#Cc5cccnc5)c4c3Cl)c2)C(=O)C1 [Example 29, 1-(3-(4-chloro-3-(pyridin-3-ylethynyl)-1H-pyrrolo[2,3-b]pyridin-5-yl)phenyl)-4-(2-methoxyacetyl)piperazin-2-one]"
